Assay results: BindingDB's records for doi:10.1073/pnas.2111172118 (Baylor College of Medicine, 2021)

Target: Replicase polyprotein 1ab (Severe acute respiratory syndrome coronavirus 2, UniProt P0DTD1)
Assay: Enzyme Inhibition Assay and Ki Values Determination
From the text: Initial hydrolysis rates of fluorescent peptide were plotted as a function of compound concentrations and Ki values were obtained by fitting the data into the Morrison equation (42) with SE from triplicates.

## COc1cc(-c2cccc3[nH]ncc23)cc(CO)c1OCC(=O)N1CCC(Oc2cccc(C(=O)N(C)C)c2)C1 (stereo unspecified) [CDD-1714]
  Ki: 24 nM
